The values below come from article PMC6123382, “Phosphorylation of the Amyloid-Beta Peptide Inhibits Zinc-Dependent Aggregation, Prevents Na,K-ATPase Inhibition, and Reduces Cerebral Plaque Deposition” (Frontiers in Molecular Neuroscience, 2018).

Series [1] deals with Na^+/K^+-ATPase (α1β1 isozyme) (Anas platyrhynchos, UniProt Q6TG02+Q7ZYV1). As to the kind of experiment: Isothermal titration calorimetry of binding to Na+/K+-ATPase. Also on record: species or system duck (salt glands). Particulars: ITC, 25°C. How it is done: The purified preparation of Na^+/K^+-ATPase (α1β1 isozyme) was obtained from duck salt glands as described elsewhere ([Petrushanko et al., 2016]).
The thermodynamic parameters of amyloid peptides binding to Na^+/K^+-ATPase were measured using a MicroCal iTC200 instrument, as described elsewhere ([Mitkevich et al., 2012]; [Petrushanko et al., 2014]). Experiments were carried out at 25°C in 10 mM imidazole buffer (pH 7.5), containing 130 mM NaCl, 30 mM KCl, 3 mM MgCl2. Aliquots (2.6 μl) of ligands were injected into a 0.2-ml cell containing protein solution to achieve a complete binding isotherm. Protein concentration in the cell ranged from 10 to 20 μM, and ligand concentration in the syringe ranged from 100 to 200 μM. The resulting titration curves were fitted using the MicroCal Origin software, assuming one set of binding sites. Affinity constants (Ka), enthalpy variations (ΔH) and stoichiometry of binding (N) were determined and the Gibbs energy (ΔG) and entropy variations (ΔS) were calculated from the equation: ΔG = −RTlnKa = ΔH-TΔS.
For orientation: ITC needs no label: the signal is the heat of the interaction.

The target in series [2] is Na+/K+-ATPase (α1β1 isozyme) from duck salt glands (duck). Put plainly: ITC; peptide (100-200 μM, syringe) injected into Na+/K+-ATPase (10-20 μM, cell); 25°C; 10 mM imidazole pH 7.5, 130 mM NaCl, 30 mM KCl, 3 mM MgCl2; fit with one set of binding sites.
The conditions of series [3]: cited from earlier work. An excerpt: Recently, it has been shown that Aβ undergoes phosphorylation at Ser8 both in vitro and in vivo ([Kumar et al., 2011], [2013]). […] Recently, pS8-Aβ was obtained in vitro by Aβ phosphorylation with protein kinase A and was subsequently identified in vivo ([Kumar et al., 2011], [2013]). Based on the oligomeric state of pS8-Aβ derived from brain tissue of A ...

Where [4] appears, read: 10 mM imidazole buffer (pH 7.5), 130 mM NaCl, 30 mM KCl, 3 mM MgCl2.
Where [5] appears, read: pH 7.5, calculated from ΔG = −RTlnKa = ΔH-TΔS.

Where no end group is shown, it is not given here.

On to LVFFAEDVGSNKGAIIGLMVGGVVIA [Aβ17–42], for which, in series [1] (setting [4]), the “detectability of binding to Na+,K+-ATPase” value is recorded as “Binding was detectable” and the ΔH is -9.5 kJ/mol. Further, in series [1] (10 mM imidazole buffer (pH 7.5), 130 mM NaCl, 30 mM KCl, 3 mM MgCl2, one set of binding sites), the Ka came to 260000 M⁻¹. Moreover, in series [1] (setting [5]), the TΔS was 21.5 kJ/mol and the ΔG was -31 kJ/mol.
In general, Kd refers to the constant that tells how readily two partners part at equilibrium. “β-amyloid peptide 17–42 (Aβ17-42), C-terminal hydrophobic fragment”: in series [2], the Ka stood at 260000 M⁻¹, the Kd was 3.8 µM and the dH was -9.5 kJ/mol.
Regarding “pS8-Aβ40: Aβ40 phosphorylated at Ser8 (literature)”, the aggregation in vitro entry in series [3] (absence of divalent cations, ref Kumar et al. (2011)) was “accelerated aggregation”.
Consider “pS8-Aβ: phosphorylated Ser8-containing β-amyloid peptide (length not stated, literature)”, for which the “aggregation in absence of zinc ions” value in series [3] (in vitro, absence of zinc ions, ref Rezaei-Ghaleh et al., 2016, Jamasbi et al., 2017) was “fast-aggregating peptide species”.
